# Values joined by “and” are separate entries in the source; they are usually repeats but may differ in a detail not shown here. Equal values may be shown once.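 Growth conditions: 96-well plates. Treatment: test compound, 48 hours, 5 concentrations. Analysis: linear interpolation between bracketing concentrations; unreached endpoints set to highest concentration. GI50 = concentration required for 50% inhibition of growth. At the TGI there is no net growth.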
# Legend:
# Assay in all cases: NCI anticancer screen, dose series, 48 h
# NCI-H460 lung = test system: NCI-H460 lung
# EKVX NSCLC = test system: EKVX NSCLC
# SK-MEL-28 melanoma = test system: SK-MEL-28 melanoma
# NCI-H226 lung = test system: NCI-H226 lung
# HCC-2998 colon = test system: HCC-2998 colon
# SW-620 colon = test system: SW-620 colon
# OVCAR-5 ovarian = test system: OVCAR-5 ovarian
# SF-539 CNS = test system: SF-539 CNS
# TK-10 renal = test system: TK-10 renal
SMILES,TGI (NCI-H460 lung),TGI (EKVX NSCLC) [µM],TGI (SK-MEL-28 melanoma),TGI (NCI-H226 lung) [µM],TGI (HCC-2998 colon),TGI (SW-620 colon) [µM],TGI (OVCAR-5 ovarian) [µM],TGI (SF-539 CNS) [µM],TGI (TK-10 renal),GI50 (NCI-H460 lung),GI50 (TK-10 renal),GI50 (SK-MEL-28 melanoma),GI50 (HCC-2998 colon),GI50 (SW-620 colon) [µM],GI50 (OVCAR-5 ovarian) [µM],GI50 (SF-539 CNS) [µM],GI50 (EKVX NSCLC) [µM],GI50 (NCI-H226 lung) [µM]
CCOC(=O)C(=O)CC1=Nc2ccccc2SC(c2cccc(C)c2)C1 (centres undefined),36.4 µM,40.4,29.3 µM,32.5,31.3 µM,43.4,31.8,35.1,,,,,,,,,,
CC1=C(/C=C/C(C)=C/C2CC(N(C)C)=CC(=O)O2)C(C)(C)CCC1 (centres undefined),42.4 µM,27.9,30.9 µM,25.8,26.7 µM,31.1,24.1,30.2,27.5 µM,,,,,,,,,
CCCCCCCCCCCCCCCCCCn1cc[n+](C)c1,1.8 µM and 2.11 µM,,2.41 µM and 2.59 µM,,1.26 µM and 0.913 µM,1.96,2,2.4,1.97 µM and 1.44 µM,0.521 µM and 0.659 µM,0.47 µM and 0.26 µM,1.01 µM and 1.15 µM,0.303 µM and 0.192 µM,0.624,0.605,1.06,,
CC(=O)[O-].Cn1ccnc1CNCc1nccn1C.[Cu+2].[O-][Cl+3]([O-])([O-])[O-],> 100 µM,> 100,> 100 µM,> 100,> 100 µM,> 100,,> 100,> 100 µM,51.2 µM,> 100 µM,> 100 µM,> 100 µM,> 100,,> 100,> 100,> 100
COc1ccc2c(c1)[nH]c(=O)c1c3cccc(F)c3cn21,11.7 µM,> 100,> 69.8 µM,44.7,0.822 µM,25.8,> 100,0.455,> 100 µM,0.0442 µM,9.55 µM,0.351 µM,0.143 µM,0.0343,0.508,0.0522,1.27,12.1
c1ccc(C2OC3(CCC[C@H]4C[C@H]43)O[C@H]2c2ccccc2)cc1 (some centres undefined),> 100 µM,> 100,,> 100,> 100 µM,> 100,> 100,> 100,> 100 µM,,,,,,,,,
C[CH2][Ge]([CH2]C)([CH2]C)[O]C(=O)C(OC(C)=O)c1ccccc1 (centres undefined),> 100 µM,> 100,> 100 µM,> 100,> 100 µM,> 100,> 100,> 100,> 100 µM,> 100 µM,> 100 µM,> 100 µM,> 100 µM,> 100,> 100,> 100,38.3,> 100
COc1ccc2c(c1OC)CO[C@@H]2[C@H]1c2c(cc3c(c2OC)OCO3)CCN1S(=O)(=O)c1cn(C)cn1,26.8 µM,> 100,> 100 µM,4.48,> 100 µM,> 100,> 100,5.66,> 100 µM,2.87 µM,> 100 µM,5.4 µM,3.23 µM,1.2,4.22,1.57,13.1,0.462
CN(C)CCNC(=O)c1cccc2cc3c(Cl)cccc3nc12,,9.58,5.4 µM,2.73,3.66 µM,6.17,6.68,4.03,7.66 µM,,,,,,,,,
CC(=O)Nc1c(Nc2ccccc2)[nH]c(C)nc1=S,> 100 µM,> 100,> 100 µM,,> 100 µM,> 100,> 100,,> 100 µM,,,,,,,,,
O=C(O)[C@H](NS(=O)(=O)c1ccc(F)cc1)c1ccccc1,> 100 µM,> 100,> 100 µM,> 100,> 100 µM,> 100,> 100,> 100,> 100 µM,,,,,,,,,
COc1ccc2c3c([nH]c2c1[N+](=O)[O-])C(C)N(Cc1ccccc1)CC3 (centres undefined),14.1 µM,> 100,59.5 µM,> 100,> 100 µM,> 100,> 100,5.24,> 100 µM,,,,,,,,,
N#C/C(=C/c1ccc2c(c1)OCO2)C(=O)c1ccccc1,> 100 µM,> 100,> 100 µM,,> 100 µM,> 100,> 100,> 100,> 100 µM,,,,,,,,,
N/C(=N\N=C\c1ccc(C(F)(F)F)cc1)NO,> 100 µM,33.7,> 100 µM,,,> 100,,50.6,> 100 µM,,,,,,,,,
Cc1cccc(C)c1NC(=O)C1=NC(=S)NC(c2ccccc2)C1c1nc2ccccc2s1 (centres undefined),> 100 µM,> 100,> 100 µM,> 100,> 100 µM,> 100,,> 100,> 100 µM,,,,,,,,,
COCN1COCN=C1NC#N,> 100 µM,> 100,> 100 µM,> 100,> 100 µM,66.8,> 100,> 100,> 100 µM,,,,,,,,,

SMILES,TGI (NCI-H460 lung),TGI (EKVX NSCLC) [µM],TGI (SK-MEL-28 melanoma),TGI (NCI-H226 lung) [µM],TGI (HCC-2998 colon),TGI (SW-620 colon) [µM],TGI (OVCAR-5 ovarian) [µM],TGI (SF-539 CNS) [µM],TGI (TK-10 renal),GI50 (NCI-H460 lung),GI50 (TK-10 renal),GI50 (SK-MEL-28 melanoma),GI50 (HCC-2998 colon),GI50 (SW-620 colon) [µM],GI50 (OVCAR-5 ovarian) [µM],GI50 (SF-539 CNS) [µM],GI50 (EKVX NSCLC) [µM],GI50 (NCI-H226 lung) [µM]
O=C1N2Cc3c4ccc5c3CN3C(=O)N6Cc7c(ccc(c7CN1C6(c1ccccc1)C23c1ccccc1)OCCOCCNCCOCCO4)OCCOCCNCCOCCO5 (centres undefined),> 100 µM,> 100,> 100 µM,> 100,> 100 µM,50.8,> 100,> 100,56 µM,,,,,,,,,
COC(=O)C1Cc2c(n(C)c3ccccc23)C(CCC(=O)O)N1Cc1ccccc1 (centres undefined),80.7 µM,> 100,58.2 µM,75.2,> 100 µM,> 100,> 100,58,> 100 µM,,,,,,,,,
O=[N+]([O-])C=C(c1ccc(Cl)cc1)c1ccc(Cl)cc1,36.7 µM,32.5,31 µM,30.7,34.4 µM,31,27.7,31.5,33.5 µM,,,,,,,,,
CC1/C(=N\O)CC(c2ccccc2)N(C)C1c1ccccc1 (centres undefined),> 100 µM,> 100,> 100 µM,> 100,> 100 µM,> 100,> 100,> 100,> 100 µM,,,,,,,,,
O=C1C(c2ccc(Br)cc2)=[N+]([O-])c2ccccc21,34.8 µM,29.5,35.2 µM,35.3,29.3 µM,41.5,35.5,34.7,29.7 µM,,,,,,,,,
O=C(CC1OC(O)C(Cl)=C1Cl)c1cccnc1 (centres undefined),> 100 µM,> 100,> 100 µM,> 100,> 100 µM,> 33.9,> 100,1.41,> 100 µM,,,,,,,,,
CN(c1ccc(C(=O)c2ccc(N(C)S(C)(=O)=O)cc2)cc1)S(C)(=O)=O,> 100 µM,> 100,> 100 µM,> 100,,> 100,> 100,,> 100 µM,,,,,,,,,
Cc1cccc(C2SCc3nc4ccccc4n32)c1 (centres undefined),> 100 µM,68.4,65.7 µM,60.9,,> 100,65.8,> 100,56.8 µM,,,,,,,,,
O=c1[nH]c2ccccc2nc1/C=C(\O)c1ccccc1O,> 100 µM,> 100,> 100 µM,> 100,> 100 µM,> 100,> 100,,> 100 µM,,,,,,,,,
CCOP(=O)(OCC)C1CCCOC1=O (centres undefined),> 100 µM,> 100,> 100 µM,,> 100 µM,> 100,> 100,> 100,> 100 µM,,,,,,,,,
COc1ccc(CN2c3ccccc3Sc3ccccc32)c(C(F)(F)F)c1,> 100 µM,> 100,,56.3,10.3 µM,> 100,> 100,3.89,> 100 µM,0.456 µM,5.82 µM,,2 µM,0.443,9.75,0.452,1.2,10.4
CN(C)C(=N/O)/C(=N\O)N(C)C,> 100 µM,> 100,> 100 µM,> 100,> 100 µM,> 100,> 100,> 100,> 100 µM,,,,,,,,,
O=C([CH-]C(=O)c1ccccc1)c1ccccc1.[CH-]1CCCCC1.[CH-]1CCCCC1.[CH-]1CCCCC1.[Sn+4],,32.6,,39.3,18.9 µM,9.72,39.7,27,26.1 µM,8.88 µM,12.1 µM,,6.1 µM,3,22.8,10.4,10.7,5.73
CC1=C(C(=O)Nc2ccccc2)C(c2cccc3ccccc23)C(C(=O)Nc2ccccc2)=C(C)N1,,37.6,34.7 µM,16,38.6 µM,55.1,44.6,37.9,96.7 µM,,,,,,,,,
COC(=O)N/N=C(\C)c1c(O)cc(C)oc1=O,> 100 µM,> 100,> 100 µM,> 100,> 100 µM,> 100,,58,> 100 µM,,,,,,,,,

# Source: PubChem BioAssay (NCI)
